Laboratory results published in the supplement of paper PMC10307832.

Tests used:
Assay in all cases: relative viability (nuclei count vs DMSO), 5 days (fraction); higher = more cells survive
[1] = compound: O=C(O)c1ccc2c(c1)nc(Nc1cccc(Cl)c1)c1ccncc12 [Silmitasertib] + O=C(CCCCCCC(=O)Nc1ccccc1)NO [Vorinostat] (partner 1 µM)
Summary of the method: (§1)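 After 5 days of treatment, lung cancer cells in 1536-well plates were fixed and stained in a single step (final 0.05% Triton X-100, 1% formaldehyde, 1 ug/ml Hoechst) and their nuclei counted on 4× images. Treatment had been applied by pin tool the day after seeding as one drug alone or as a fixed anchor-drug dose with five library-drug doses (not always all listed) in √10 steps. Relative viability is the nuclei count of treated wells divided by that of vehicle wells, and values are medians of duplicate plates.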

[2] = compound: O=C(O)c1ccc2c(c1)nc(Nc1cccc(Cl)c1)c1ccncc12 [Silmitasertib] + CC(C)C[C@H](NC(=O)[C@H](Cc1ccccc1)NC(=O)c1cnccn1)B(O)O [Bortezomib] (partner 0.002 µM)
Summary of the method: as §1

[3] = compound: O=C(O)c1ccc2c(c1)nc(Nc1cccc(Cl)c1)c1ccncc12 [Silmitasertib] + COc1cc2c(Oc3ccc(NC(=O)C4(C(=O)Nc5ccc(F)cc5)CC4)cc3F)ccnc2cc1OCCCN1CCOCC1 [Foretinib] (partner 0.25 µM)
Summary of the method: as §1

[4] = compound: O=C(O)c1ccc2c(c1)nc(Nc1cccc(Cl)c1)c1ccncc12 [Silmitasertib] + CCNC(=O)c1noc(-c2cc(C(C)C)c(O)cc2O)c1-c1ccc(CN2CCOCC2)cc1 [Luminespib] (partner 0.01 µM)
Summary of the method: as §1

[5] = compound: O=C(O)c1ccc2c(c1)nc(Nc1cccc(Cl)c1)c1ccncc12 [Silmitasertib] + Cc1cc(Nc2cc(N3CCN(C)CC3)nc(Sc3ccc(NC(=O)C4CC4)cc3)n2)n[nH]1 [Tozasertib] (partner 0.1 µM)
Summary of the method: as §1

| Cell Line | relative viability ([1]; first compound 0.04 µM) | relative viability ([1]; first compound 0.4 µM) | relative viability ([1]; first compound 1.265 µM) | relative viability ([1]; first compound 4 µM) | relative viability ([2]; first compound 0.04 µM) | relative viability ([2]; first compound 0.4 µM) | relative viability ([2]; first compound 1.265 µM) | relative viability ([2]; first compound 4 µM) | relative viability ([3]; first compound 0.04 µM) | relative viability ([3]; first compound 0.4 µM) | relative viability ([3]; first compound 1.265 µM) | relative viability ([3]; first compound 4 µM) | relative viability ([4]; first compound 0.04 µM) | relative viability ([4]; first compound 0.4 µM) | relative viability ([4]; first compound 1.265 µM) | relative viability ([4]; first compound 4 µM) | relative viability ([5]; first compound 0.04 µM) | relative viability ([5]; first compound 0.4 µM) | relative viability ([5]; first compound 1.265 µM) | relative viability ([5]; first compound 4 µM) |
| --- | --- | --- | --- | --- | --- | --- | --- | --- | --- | --- | --- | --- | --- | --- | --- | --- | --- | --- | --- | --- |
| NCI-H1755 | 0.756 | 0.633 | 0.526 | 0.72 | 0.91 | 0.905 | 0.95 | 0.945 | 0.945 | 0.911 | 0.901 | 1.07 | 0.378 | 0.627 | 0.364 | 0.525 | 0.572 | 0.519 | 0.623 | 0.714 |
| NCI-H1915 | 0.54 |  | 0.519 | 0.413 | 1.01 |  | 1.02 | 0.424 | 1.13 |  | 1.05 | 0.991 | 0.83 |  | 0.77 | 0.669 | 0.487 |  | 0.38 | 0.283 |
| NCI-H1975 | 0.766 |  | 0.687 | 0.69 | 0.349 | 0.283 | 0.423 | 0.331 | 0.883 |  | 0.802 | 0.83 | 0.199 |  | 0.184 | 0.136 | 0.942 |  | 0.514 | 0.308 |
| NCI-H1993 | 0.911 | 0.553 | 0.659 | 0.514 | 1.33 | 0.857 | 0.995 | 0.745 | 0.817 | 0.652 | 0.651 | 0.65 | 0.874 | 0.697 | 0.621 | 0.617 | 0.622 | 0.523 | 0.522 | 0.53 |
| NCI-H2009 | 0.787 | 0.681 | 0.795 | 0.751 | 1.14 | 0.545 | 0.944 | 0.463 | 1.34 | 1.16 | 1.13 | 0.897 | 1.06 | 1.1 | 0.971 | 0.604 | 0.817 | 0.839 | 0.719 | 0.474 |
| NCI-H2023 | 0.839 | 0.268 | 0.63 | 0.374 | 1.13 | 0.557 | 0.946 | 0.282 | 0.886 | 0.75 | 0.551 | 0.707 | 0.746 | 0.535 | 0.683 | 0.684 | 0.46 | 0.321 | 0.24 | 0.252 |
| NCI-H2085 | 0.837 | 0.638 | 0.725 | 0.548 | 1.19 | 0.614 | 0.873 | 0.889 | 0.918 |  | 0.952 | 0.861 | 0.409 |  | 0.422 | 0.386 | 0.82 | 0.737 | 0.602 | 0.533 |
| NCI-H2087 | 0.669 | 0.506 | 0.672 | 0.589 | 0.737 | 0.656 | 0.657 | 0.421 | 1.22 |  | 0.741 | 0.806 | 0.148 |  | 0.179 | 0.142 | 0.264 |  | 0.152 | 0.132 |
| NCI-H2126 | 0.863 | 0.607 | 0.693 | 0.406 | 1.08 | 0.98 | 1.08 | 1.05 | 1.21 |  | 1.03 | 1.07 | 0.915 | 0.901 | 0.777 | 0.853 | 0.845 | 0.759 | 0.793 | 0.709 |
| NCI-H2228 | 0.848 | 0.513 | 0.779 | 0.875 | 1.46 | 0.92 | 0.912 | 1.13 | 1 |  | 0.926 | 1.1 | 0.178 |  | 0.145 | 0.135 | 0.287 |  | 0.247 | 0.23 |
| NCI-H2347 | 0.565 | 0.502 | 0.565 | 0.479 | 1.27 | 0.593 | 0.881 | 0.652 | 0.612 | 0.762 | 0.885 | 0.561 | 0.28 |  | 0.48 | 0.236 | 0.663 |  | 0.56 | 0.419 |
| NCI-H2405 | 1.1 | 0.927 | 0.839 | 0.519 | 0.936 | 0.792 | 0.874 | 0.904 | 1.02 | 0.887 | 0.967 | 0.964 | 0.75 | 0.507 | 0.757 | 0.71 | 0.772 | 0.526 | 0.652 | 0.665 |
| NCI-H3122 | 1.04 | 0.807 | 0.679 | 1.19 | 1.11 | 0.935 | 1.03 | 1.12 | 0.821 | 0.86 | 0.982 | 0.947 | 0.104 | 0.0852 | 0.0992 | 0.123 | 0.427 | 0.41 | 0.334 | 0.305 |
| PC-3 [JPC-3] | 0.815 | 0.706 | 0.833 | 0.436 | 0.892 | 0.699 | 0.891 | 0.826 | 1.12 | 0.852 | 1.14 | 0.998 | 0.716 | 0.571 | 0.746 | 0.654 | 0.971 | 0.69 | 0.86 | 0.835 |
| PC-14 | 0.893 |  | 0.734 | 0.482 | 0.946 | 0.788 | 0.871 | 0.819 | 1.05 | 1.02 | 0.965 | 0.461 | 0.188 |  | 0.14 | 0.179 | 0.668 |  | 0.595 | 0.532 |
| RERF-LC-KJ | 0.768 | 0.517 | 0.463 | 0.371 | 1.15 | 0.95 | 0.779 | 0.574 | 0.887 | 0.753 | 0.765 | 0.628 | 1.24 | 1.19 | 1.08 | 0.633 | 0.546 | 0.531 | 0.382 | 0.248 |
| SK-LU-1 | 0.851 | 0.673 | 0.587 | 0.35 | 1.33 | 0.735 | 0.801 | 0.394 | 0.954 | 0.693 | 0.621 | 0.417 | 0.21 | 0.204 | 0.187 | 0.179 | 0.358 | 0.315 | 0.221 | 0.195 |
